The record followed here is paper PMC4411398 (Science signaling, 2012).

Holding throughout (assay type): biochemical
One assay addresses T1, GC-A (Rattus norvegicus, UniProt P18910).
T1 sequence (P18910 29-1057): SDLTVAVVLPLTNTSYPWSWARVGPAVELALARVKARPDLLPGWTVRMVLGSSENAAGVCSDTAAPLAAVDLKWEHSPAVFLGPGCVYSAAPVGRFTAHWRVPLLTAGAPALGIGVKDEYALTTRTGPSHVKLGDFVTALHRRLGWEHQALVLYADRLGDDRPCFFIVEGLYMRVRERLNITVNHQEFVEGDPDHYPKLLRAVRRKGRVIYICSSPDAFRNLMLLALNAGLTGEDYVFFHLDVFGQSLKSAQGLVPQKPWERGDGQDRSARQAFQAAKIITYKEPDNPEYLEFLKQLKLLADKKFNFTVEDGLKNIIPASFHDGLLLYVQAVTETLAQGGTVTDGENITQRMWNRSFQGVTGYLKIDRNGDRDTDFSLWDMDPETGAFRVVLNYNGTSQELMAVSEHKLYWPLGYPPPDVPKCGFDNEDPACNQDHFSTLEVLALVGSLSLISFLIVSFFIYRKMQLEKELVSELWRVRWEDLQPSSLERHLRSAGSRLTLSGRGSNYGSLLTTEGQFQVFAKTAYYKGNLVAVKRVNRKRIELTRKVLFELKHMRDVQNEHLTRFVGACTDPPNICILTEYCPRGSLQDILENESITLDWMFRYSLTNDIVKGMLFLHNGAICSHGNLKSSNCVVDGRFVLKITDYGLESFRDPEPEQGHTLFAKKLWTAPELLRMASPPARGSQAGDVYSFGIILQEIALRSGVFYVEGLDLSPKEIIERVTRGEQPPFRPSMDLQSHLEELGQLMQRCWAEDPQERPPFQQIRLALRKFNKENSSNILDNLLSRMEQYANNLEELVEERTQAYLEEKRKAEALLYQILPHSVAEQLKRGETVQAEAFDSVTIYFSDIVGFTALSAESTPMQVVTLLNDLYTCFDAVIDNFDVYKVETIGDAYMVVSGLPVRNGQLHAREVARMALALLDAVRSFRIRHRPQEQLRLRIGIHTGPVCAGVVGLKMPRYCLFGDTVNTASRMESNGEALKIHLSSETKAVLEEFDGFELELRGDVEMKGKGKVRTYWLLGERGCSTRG
T1 sequence (P01161 123-150 partner limits assumed): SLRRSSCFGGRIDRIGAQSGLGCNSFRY
Description: GC assay. To be noted: for increase of ANP-stimulated GC-A activity by adenine nucleotide: saturating ANP; for EC50: EC50 for activation.

The target of a further assay is GC-B (Rattus norvegicus, UniProt P16067). Description: GC assay.
In another assay the target is endogenous GC-B (Mus musculus, UniProt Q6VVW5). As to the kind of experiment: GC assay in crude membranes from NIH 3T3 cells. To be noted: 125 nM CNP, 0.1 mM GTP.
[1] abbreviates: 1 μM ANP, 9 min, nucleotide at 1 mM.
[2] abbreviates: NP-stimulated, 9 min, 10 μM ATP.
The mark [3] stands for this setting: NP-stimulated, 9 min, 100 μM ATP.
The mark [4] stands for this setting: CNP-stimulated, presence of ATP.
Where [5] appears, read: NP-stimulated, 9 min, 750 μM ATP.
[6] abbreviates: presence of CNP, absence of ATP, increasing Mg2+GTP.

Sequence of GC-B (P16067 17-1047): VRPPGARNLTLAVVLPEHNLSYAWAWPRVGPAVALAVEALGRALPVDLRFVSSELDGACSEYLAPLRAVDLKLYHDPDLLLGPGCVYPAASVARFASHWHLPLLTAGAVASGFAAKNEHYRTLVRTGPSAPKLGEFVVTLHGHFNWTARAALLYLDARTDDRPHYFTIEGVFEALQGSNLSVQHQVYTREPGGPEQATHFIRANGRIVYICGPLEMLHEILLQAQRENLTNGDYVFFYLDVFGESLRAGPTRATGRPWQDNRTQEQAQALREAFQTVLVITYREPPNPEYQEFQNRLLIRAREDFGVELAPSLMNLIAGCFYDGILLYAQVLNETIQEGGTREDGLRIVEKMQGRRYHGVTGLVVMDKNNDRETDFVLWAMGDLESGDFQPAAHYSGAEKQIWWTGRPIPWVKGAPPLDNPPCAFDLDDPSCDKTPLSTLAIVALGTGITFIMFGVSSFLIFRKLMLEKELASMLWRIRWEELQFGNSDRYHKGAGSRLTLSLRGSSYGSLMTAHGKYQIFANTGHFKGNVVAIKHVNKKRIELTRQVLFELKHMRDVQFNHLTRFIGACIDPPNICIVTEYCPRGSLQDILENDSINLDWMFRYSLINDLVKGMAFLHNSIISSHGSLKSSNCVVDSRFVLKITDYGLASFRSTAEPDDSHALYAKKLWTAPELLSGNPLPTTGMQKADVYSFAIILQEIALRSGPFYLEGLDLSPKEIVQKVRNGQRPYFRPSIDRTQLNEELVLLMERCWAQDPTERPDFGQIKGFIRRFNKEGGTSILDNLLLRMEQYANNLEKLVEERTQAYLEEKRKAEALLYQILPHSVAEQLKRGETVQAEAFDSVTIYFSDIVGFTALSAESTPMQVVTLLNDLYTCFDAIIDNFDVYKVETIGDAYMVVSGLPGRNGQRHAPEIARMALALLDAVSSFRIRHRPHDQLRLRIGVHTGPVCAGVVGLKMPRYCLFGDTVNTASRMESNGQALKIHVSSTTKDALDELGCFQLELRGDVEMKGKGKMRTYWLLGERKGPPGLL
Sequence of GC-B (P55207 105-126 partner limits assumed): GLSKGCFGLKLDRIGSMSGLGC
Sequence of endogenous GC-B (Q6VVW5 17-1047): as the sequence (P16067 17-1047) above, with H100R, T188A, E385D, I449V, R1024Q counted along it

In the case of `Nc1ncnc2c1ncn2[C@@H]1O[C@H](COP(=O)(O)O)[C@@H](O)[C@H]1O` [AMP, adenosine monophosphate], the “increase of ANP-stimulated GC-A activity by adenine nucleotide” value at GC-A (0.1 mM GTP) is listed as “failed to increase activity”.
`Nc1ncnc2c1ncn2[C@@H]1O[C@H](COP(=O)(O)OP(=O)(O)OP(=O)(O)O)[C@@H](O)[C@H]1O` [ATP, adenosine triphosphate]: the Km – broadly, the concentration of substrate that gives half-maximal velocity – is 100 ± 20 µM at GC-A (setting [1]) and ~100 µM at GC-A (NP-activated receptor, presence of ATP). For the same compound, the EC50 (commonly the concentration at which the effect is half-maximal) at GC-A (NP-stimulated, 0.1 mM GTP) is 77 µM; on GC-A (NP-stimulated, 0.3 mM GTP), 38 µM; on GC-A (NP-stimulated, 0.9 mM GTP), 38 µM; at GC-A (NP-stimulated, 5.4 mM GTP) it was 16 µM; on GC-B (EC50 for ATP activation, approximate value stated in the discussion), ~100 µM; at GC-B (EC50 for activation, NP-stimulated, 0.1 mM GTP), 40 µM. The EC50 on GC-B (EC50 for activation, NP-stimulated, 0.3 mM GTP) was found to be 26 µM; at GC-B (EC50 for activation, NP-stimulated, 0.9 mM GTP), 16 µM; at GC-B (EC50 for activation, NP-stimulated, 5.4 mM GTP), 19 µM. Also, the Hill coefficient (as a rule, a measure of the steepness of the concentration-response curve) on GC-A (setting [2]) is 1.2 ± 0.08; on GC-A (setting [3]) it was 0.9 ± 0.07; at GC-B (setting [2]), 0.9 ± 0.13; at GC-B (setting [5]), 0.9 ± 0.24; at GC-B (absence of NPs, presence of ATP), 1.1. Besides, the Michaelis constant came out at 0.08 ± 0.010 mM on GC-A (setting [3]), 0.4 ± 0.11 mM on GC-B (setting [2]) and 0.2 ± 0.18 mM at GC-B (setting [5]). Also, the S0.5 is listed as 0.09 ± 0.02 mM at GC-B (setting [4]) and 1.0 ± 0.15 mM on GC-B (basal (no NP), presence of ATP). Also, the Vmax on GC-B (setting [4]) is 41 ± 3.1 nmol mg^−1 (9 min)^−1; on GC-B (basal (no NP), presence of ATP), 4 ± 0.3 nmol mg^−1 (9 min)^−1.
`Nc1ncnc2c1ncn2[C@@H]1O[C@H](CO)[C@@H](O)[C@H]1O` [adenosine]: the “increase of ANP-stimulated GC-A activity by adenine nucleotide” value at GC-A (0.1 mM GTP) is “failed to increase activity”.
Consider `Nc1ncnc2c1ncn2[C@H]1C[C@H](O)[C@@H](COP(=O)(O)OP(=O)(O)OP(=O)(O)O)O1` [2′-deoxy-ATP], for which, at GC-A (setting [1]), the Hill coefficient is 1.2 ± 0.24 and the Km was 400 ± 80 µM. The “activation of GC-A compared with ATP” value on GC-A (single-substrate concentration GC assays, 0.1 mM GTP, ANP) is “poorer activator of GC-A than was ATP”.
On to `Nc1ncnc2c1ncn2[C@@H]1O[C@H](COP(=O)(O)OP(=O)(O)O)[C@@H](O)[C@H]1O` [ADP, adenosine diphosphate], for which, on GC-A (setting [1]), the Hill coefficient came to 1.1 ± 0.18 and the Km turned out to be 200 ± 40 µM.
Take C-type natriuretic peptide [CNP]: in the assay with endogenous GC-B (absence of ATP), the “increase of GC-B activity” value is reported as “no statistically significant increase in activity”. Besides, the “increase of GC-B activity” value in the assay with endogenous GC-B (presence of 1 mM ATP) is on record as “more than fourfold”. For the same compound, in the assay with GC-B (absence of ATP), the “increase of maximal velocity” value stood at 13 fold. In addition, in the assay with GC-B (setting [6]), the S0.5 came out at 1.0 ± 0.15 mM and the Vmax is given as 49 ± 3.7 nmol mg^−1 (9 min)^−1.
